# Where a name gives a salt, the structure may show the parent alone. Read-outs that look alike come from different tables or passages of the source.
# Experiments:
# [1] = system: isolated rabbit portal vein; assay: Effects on the isolated rabbit portal vein (contraction, in vitro); format: cell-based; details: for EC50 / Emax: Oryctolagus cuniculus; for EC50: read-out: Portal vein, in vitro: EC50 value (effective concentration inducing a half maximum contraction); for Emax / Portal vein, in vitro: Max. contraction: cumulative addition (12 concentrations), reference noradrenaline 6×10^-5 M
# Experimental: (§1) Female rabbits weighing 2.5-3.0 kg were sacrificed and exsanguinated. The urethra and portal vein were dissected out and suspended in organ baths containing oxygenated Krebs solution at 37° C. Two rings of urethra (4 mm broad) and two longitudinal strips of the portal vein were used. The basal tension was adjusted to about 10 mN after an equilibration time of 60 minutes. Isometric tension was recorded via a force transducer (Statham FT03) and registered on a Grass polygraph model 7.
# (§2) Submaximum concentrations of noradrenaline (6×10^-5 M) were used to achieve reference contractions.
# (§3) The test substances were added cumulatively (12 concentrations) until a maximum response was obtained.
# isolated rabbit urethra = assay: Effects on the isolated rabbit urethra (contraction, in vitro); format: cell-based; details: Krebs solution, 37° C.; for EC50: cumulative addition; for Emax / Urethra, in vitro: Max. contraction: cumulative addition (12 concentrations), reference noradrenaline 6×10^-5 M
# Experimental: as §1, §2, §3
# [2] = system: blood pressure in anaesthetized rabbits; assay: Effects on blood pressure in anaesthetized rabbits; format: in vivo, rabbit; details: i.v. injections of different doses, femoral artery catheter
# Experimental: (§4) Rabbits, weighing 2.5-3 kg, were anaesthetized by pentobarbitone (initially 40 mg/kg i.v. and for maintenance anaesthesia 10 mg/kg, h). For recording of urethral pressure a catheter (Dog cath nr 6.) was inserted into the urethra and placed at the point of highest pressure. The basal urethral pressure was approximately 10 cm H2 O. The blood pressure was recorded via a catheter (PP50) inserted into a femoral artery. Substances were injected intravenously into a catheter in a femoral vein. The continuous intravenous infusion of pentobarbitone kept the depth of anesthesia at a constant level through the experiment. Three consecutive noradrenaline injections (0.025 μg/kg i.v.) were given initially to constitute reference responses. Repeated intravenous injections of different doses of the same test compound were given in a randomized manner. […] In other pharmacological experiments (not described here) it was also shown that the described compounds had no or minimal effect on other organs, such as for example the urinary bladder, central nervous system, intestine, vas deferens etc.
# [3] = system: urethra (urethral pressure in anaesthetized rabbits); assay: Effects on urethral pressure in anaesthetized rabbits; format: in vivo, rabbit; details: reference noradrenaline 0.025 μg/kg i.v.
# Experimental: as §4
# [4] = read-out: Portal vein, in vitro: Max. contraction, female rabbit portal vein longitudinal strips, Krebs solution, 37° C.
# [5] = Oryctolagus cuniculus, read-out: Urethra, in vitro: EC50-value (effective concentration inducing a half maximum contraction), female rabbit urethra rings
# [6] = Oryctolagus cuniculus, read-out: Urethra, in vitro: Max. contraction, female rabbit urethra rings
# [7] = Oryctolagus cuniculus, iv, read-out: Max. urethral pressure in vivo, in % of NA-max, anaesthetized rabbits, i.v. injections of different doses
# [8] = female rabbit portal vein longitudinal strips, Krebs solution, 37° C.
# [9] = read-out: Urethra, in vitro: EC50-value (effective concentration inducing a half maximum contraction), female rabbit urethra rings
# [10] = female rabbit portal vein longitudinal strips, Krebs solution, 37° C., read-out: Portal vein, in vitro: Max. contraction
# [11] = female rabbit portal vein longitudinal strips, cumulative addition, Krebs solution, 37° C.
# [12] = Oryctolagus cuniculus, female rabbit urethra rings, read-out: Urethra, in vitro: Max. contraction
# [13] = Oryctolagus cuniculus, female rabbit urethra rings, read-out: Urethra, in vitro: EC50-value (effective concentration inducing a half maximum contraction)
# [14] = Oryctolagus cuniculus, iv, anaesthetized rabbits, i.v. injections of different doses, read-out: Max. urethral pressure in vivo, in % of NA-max
# [15] = anaesthetized rabbits, i.v. injections of different doses
Compound,EC50 [1],"Emax [1, 4]",EC50 (isolated rabbit urethra; [5]),Emax (isolated rabbit urethra; [6]),"Blood pressure; max change, in % [2]","Emax [3, 7]",other results
"CC(C)Oc1c(Cl)cccc1C(O)CN(C)C.Cl (stereo not drawn) [Compound 9, 3-Chloro-α-[(dimethylamino)methyl]-2-(1-methylethoxy)-benzenemethanol, hydrochloride]",60 µM,22%,11 µM,79%,14%,192%,
"CCN(CC)CC(O)c1cccc(OC)c1OC(C)C (stereo not drawn) [Compound 3, α-[(Diethylamino)methyl]-3-methoxy-2-(1-methylethoxy)-benzenemethanol, hydrogen oxalate]",130 µM,11%,6.6 µM,105%,-2%,131%,
"CCN(CC)CC(O)c1cccc(Cl)c1OC(C)C (stereo not drawn) [Compound 10, 3-Chloro-α-[(diethylamino)methyl]-2-(1-methylethoxy)-benzenemethanol, hydrogen oxalate]",11 µM,28%,12 µM,81%,,,
"CCN(C)CC(O)c1cccc(Cl)c1OC(C)C.Cl (stereo not drawn) [Compound 11, 3-Chloro-α-[(N-ethyl-N-methylamino)methyl]-2-(1-methylethoxy)-benzenemethanol, hydrochloride]",4.5 µM,54%,5.3 µM,100%,34%,210%,
"C=CCOc1c(OC)cccc1C(O)CN(C)C (stereo not drawn) [Compound 15, α-[(Dimethylamino)methyl]-3-methoxy-2-(2-propenyloxy)-benzenemethanol, hydrogen oxalate]",90 µM,11%,47 µM,104%,,,
"CC(C)Oc1c(Cl)cccc1C(O)CN(C)C (single isomer, unassigned; (+)) [Compound 6:2, (+)-3-chloro-α-[(dimethylamino)methyl]-2-(1-methylethoxy)-benzenemethanol]",17 µM,,,,,,"Portal vein, in vitro: Max. contraction [1, 8]: 15 % of NA-max; Urethra, in vitro: Max. contraction (isolated rabbit urethra; female rabbit urethra rings): 107 % of NA-max; EC50 (isolated rabbit urethra; [9]): 4.5 µM"
"CC(C)Oc1c(Cl)cccc1C(O)CN1CCCC1 (stereo not drawn) [Compound 7, 3-Chloro-2-(1-methylethoxy)-α-pyrrolidinomethyl-benzenemethanol, hydrogen oxalate]",,,,,-3%,,"Emax [1, 10]: 14%; EC50 [1, 11]: 41 µM; Emax (isolated rabbit urethra; [12]): 73%; EC50 (isolated rabbit urethra; [13]): 12 µM; Emax [3, 14]: 189%"
"CC(C)Oc1c(C(O)CN(C)C)cccc1[N+](=O)[O-] (stereo not drawn) [Compound 12, α-[(Dimethylamino)methyl]-2-(1-methylethoxy)-3-nitro-benzenemethanol, hydrochloride]",17 µM,18%,11 µM,80%,,,
"COc1cccc(C(O)CN(C)C)c1OC(C)C (single isomer, unassigned) [Compound 6:3, (+)-α-[(dimethylamino)methyl]-3-methoxy-2-(1-methylethoxy)-benzenemethanol]",120 µM,,,106%,14%,,"Portal vein, in vitro: Max. contraction [1, 8]: 34 % of NA-max; EC50 (isolated rabbit urethra; [9]): 6.5 µM; Max. urethral pressure in vivo, in % of NA-max [3, 15]: 288 % of NA-max"
"CC(C)Oc1c(Cl)cccc1C(O)CN(C)C (single isomer, unassigned; (-)) [Compound 6:1]",,9%,,,,,"Urethra, in vitro: Max. contraction (isolated rabbit urethra; female rabbit urethra rings): 69 % of NA-max; EC50 (isolated rabbit urethra; [9]): 21 µM"
"CC=COc1c(OC)cccc1C(O)CN1CCCC1.O=C(O)C(=O)O (stereo not drawn) [Compound 8, 3-Methoxy-2-(1-propenyloxy)-α-pyrrolidinomethyl-benzenemethanol, hydrogen oxalate]",,,,,,,"Portal vein, in vitro: Max. contraction [1, 8]: 0 % of NA-max; Urethra, in vitro: Max. contraction (isolated rabbit urethra; female rabbit urethra rings): 52 % of NA-max; EC50 (isolated rabbit urethra; female rabbit urethra rings, read-out: Urethra, in vitro: EC50-value (effective concentration inducing a half maximum contraction)): 190 µM"
"COc1cccc(C(O)CN(C)C)c1OC(C)C (single isomer, unassigned) [Compound 6:4, (-)-α-[(dimethylamino)methyl]-3-methoxy-2-(1-methylethoxy)-benzenemethanol]",,,,,11%,,"Portal vein, in vitro: Max. contraction [1, 8]: 8 % of NA-max; Urethra, in vitro: Max. contraction (isolated rabbit urethra; female rabbit urethra rings): 88 % of NA-max; EC50 (isolated rabbit urethra; [9]): 61 µM; Max. urethral pressure in vivo, in % of NA-max [3, 15]: 150 % of NA-max"
"NC[C@H](O)c1ccc(O)c(O)c1 [Noradrenaline, noradrenaline, reference compound]",,,,,,,"Emax [1, 10]: 100%; EC50 [1, 11]: 5.3 µM; Emax (isolated rabbit urethra; [12]): 100%; EC50 (isolated rabbit urethra; [13]): 16 µM; Emax at 2.5e-05 mg/kg [3, 14]: 100%"
"COc1cccc(C(O)CN(C)C)c1SC(C)C (stereo not drawn) [Compound 14, α-[(Dimethylamino)methyl]-3-methoxy-2-(1-methylethylthio)-benzenemethanol, hydrochloride]",,5%,11 µM,67%,,,
"CC(C)Sc1c(Cl)cccc1C(O)CN(C)C (stereo not drawn) [Compound 13, 3-Chloro-α-[(dimethylamino)methyl]-2-(1-methylethylthio)-benzenemethanol, hydrochloride]",,4%,77 µM,45%,,,
"CCOc1c(Cl)cccc1C(O)CN(C)C.Cl (stereo not drawn) [Compound 2, 3-Chloro-α-[(dimethylamino)methyl]-2-ethoxy-benzenemethanol, hydrochloride]",6.7 µM,22%,18 µM,105%,9%,123%,
"COc1cccc(C(O)CN2CCCC2)c1OC(C)C (stereo not drawn) [Compound 5, 3-Methoxy-2-(1-methylethoxy)-α-pyrrolidinomethyl-benzenemethanol, hydrochloride]",,,,,,,"Emax [1, 10]: 6%; Emax (isolated rabbit urethra; [12]): 68%; EC50 (isolated rabbit urethra; [13]): 110 µM"
"COc1cccc(C(O)CN(C)C)c1OC(C)C (stereo not drawn) [Compound 4, α-[(Dimethylamino)methyl]-3-methoxy-2-(1-methylethoxy)-benzenemethanol, hydrogen oxalate]",87 µM,35%,5.7 µM,95%,10%,211%,
"Cc1cccc(C(O)CN(C)C)c1OC(C)C (stereo not drawn) [Compound 1, α-[(Dimethylamino)methyl]-2-(1-methylethoxy)-3-methyl-benzenemethanol, hydrochloride]",24 µM,47%,24 µM,85%,,,
"CC(N)C(O)c1ccccc1 (stereo not drawn) [PPA, phenylpropanolamine, reference compound]",70 µM,67%,200 µM,60%,72%,99%,
